The values below come from PubChem BioAssay (NCI).

Each structure is given as a SMILES string.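 Exposure lasted 48 hours, with cells grown in 96-well plates and compounds tested at five concentrations. TGI: concentration producing complete growth inhibition.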

Some test systems named below: SK-MEL-28 melanoma; MDA-N; LOX IMVI melanoma; NCI-H226 lung; HCT-116 colon; SK-OV-3 ovarian; UO-31 renal; OVCAR-8 ovarian; A549 NSCLC; EKVX NSCLC; CCRF-CEM leukemia; UACC-257 melanoma; SK-MEL-5 melanoma; SNB-19 CNS; TK-10 renal; HT29 colon; BT-549 breast; HOP-62 NSCLC.
Holding throughout (test): NCI-60 cell line screen, 48 h

In the case of `C=C1C(O)C[C@H](OC(C)=O)[C@]2(C)C1C(OC(C)=O)[C@]1(C(C)(C)O)CC(O)C(C)=C1[C@@H](OC(=O)c1ccccc1)C2OC(C)=O` (stereo not given in full), the TGI in the test on SK-MEL-28 melanoma, in the test with MDA-N, in the test on LOX IMVI melanoma, with NCI-H226 lung, with HCT-116 colon and in the test with SK-OV-3 ovarian was more than 10 µM throughout. The TGI in the test with UO-31 renal, in the test with OVCAR-8 ovarian, in the test with A549 NSCLC, with EKVX NSCLC, in the test with CCRF-CEM leukemia and in the test with UACC-257 melanoma was more than 10 µM in each case. Besides, the TGI with SK-MEL-5 melanoma, in the test on SNB-19 CNS, in the test on TK-10 renal and with HT29 colon was more than 10 µM throughout.
Turning to `CC(=O)Nc1c(S(=O)(=O)c2ccccc2)c(C)c(C)n1Cc1ccccc1`, the TGI in the test with SK-MEL-28 melanoma, with MDA-N, in the test on NCI-H226 lung, in the test with HCT-116 colon, with SK-OV-3 ovarian and with UO-31 renal was more than 100 µM throughout. In addition, the TGI with OVCAR-8 ovarian, in the test with A549 NSCLC, with EKVX NSCLC, in the test with CCRF-CEM leukemia, in the test with UACC-257 melanoma and with SK-MEL-5 melanoma was more than 100 µM each time. Also, the TGI in the test on SNB-19 CNS, in the test with BT-549 breast, in the test on TK-10 renal and in the test with HT29 colon was more than 100 µM in each case.
In the case of `COC(=O)c1c(O)ccc2[nH]c3c(O)c4ccccc4cc3c12`, the TGI with SK-MEL-28 melanoma was 76.4 µM; in the test with MDA-N, 65 µM; in the test on NCI-H226 lung, more than 100 µM; with HCT-116 colon, 47 µM; with SK-OV-3 ovarian it was 90 µM; in the test with HOP-62 NSCLC, 46.7 µM. Further, the TGI with UO-31 renal was 84.9 µM; with OVCAR-8 ovarian, 48.9 µM; with A549 NSCLC it was more than 100 µM; in the test on EKVX NSCLC, 39.6 µM; in the test on CCRF-CEM leukemia it was 63.1 µM; in the test on UACC-257 melanoma, 94.5 µM. For the same molecule, the TGI with SK-MEL-5 melanoma, in the test on SNB-19 CNS, in the test with BT-549 breast, in the test with TK-10 renal and in the test with HT29 colon was more than 100 µM throughout.
Take `O=C(O)c1cnc(-n2[nH]c3c(c2=O)CCCC3)[nH]c1=O`: the TGI with SK-MEL-28 melanoma, with MDA-N, in the test with NCI-H226 lung, in the test with HCT-116 colon, in the test with SK-OV-3 ovarian and in the test on UO-31 renal was more than 100 µM in each case. Also, the TGI in the test on OVCAR-8 ovarian, with A549 NSCLC, in the test with EKVX NSCLC, in the test with CCRF-CEM leukemia, with UACC-257 melanoma and in the test on SK-MEL-5 melanoma was more than 100 µM throughout. Also, the TGI in the test on SNB-19 CNS, in the test on BT-549 breast, in the test with TK-10 renal and in the test with HT29 colon was more than 100 µM in each case.
As to `O=C(O)c1ccc(C2=Cc3cc(Cl)ccc3OC2)cc1`, the TGI in the test with SK-MEL-28 melanoma, with LOX IMVI melanoma, in the test with NCI-H226 lung, with HCT-116 colon, with SK-OV-3 ovarian and with HOP-62 NSCLC was more than 100 µM throughout. Besides, the TGI in the test with UO-31 renal, in the test with OVCAR-8 ovarian, in the test on A549 NSCLC, in the test with EKVX NSCLC, in the test with CCRF-CEM leukemia and in the test on UACC-257 melanoma was more than 100 µM in each case. For the same molecule, the TGI with SK-MEL-5 melanoma, with SNB-19 CNS, in the test with TK-10 renal and with HT29 colon was more than 100 µM each time.
With `S=c1[nH]n2c(CCCCCCCCc3nnc4sc(=S)[nH]n34)nnc2s1`, the TGI in the test on SK-MEL-28 melanoma, in the test on MDA-N, with NCI-H226 lung, with HCT-116 colon, in the test with SK-OV-3 ovarian and in the test on HOP-62 NSCLC was more than 100 µM each time. Also, the TGI in the test on UO-31 renal, in the test with OVCAR-8 ovarian, in the test on A549 NSCLC, in the test with EKVX NSCLC, in the test with CCRF-CEM leukemia and in the test on UACC-257 melanoma was more than 100 µM each time. For the same molecule, the TGI in the test on SNB-19 CNS, in the test with BT-549 breast and with HT29 colon was more than 100 µM each time.
Regarding `COC(=O)N[C@H](C(=O)O)C(C)O[Si](C)(C)C(C)(C)C` (stereo not given in full), the TGI in the test with SK-MEL-28 melanoma, in the test on LOX IMVI melanoma, with NCI-H226 lung, in the test on HCT-116 colon, in the test with SK-OV-3 ovarian and with HOP-62 NSCLC was more than 100 µM in each case. For the same molecule, the TGI with UO-31 renal, in the test with OVCAR-8 ovarian, in the test with A549 NSCLC, with EKVX NSCLC, in the test with CCRF-CEM leukemia and in the test on UACC-257 melanoma was more than 100 µM throughout. Also, the TGI in the test on SK-MEL-5 melanoma, with SNB-19 CNS, in the test on BT-549 breast, in the test on TK-10 renal and in the test with HT29 colon was more than 100 µM throughout.
On to `Cc1cc(S(=O)(=O)Nc2nc3ccccc3nc2-c2ccc(Cl)cc2)c(S)cc1Cl`, for which the TGI in the test on SK-MEL-28 melanoma turned out to be 31 µM; in the test with MDA-N, 35.6 µM; in the test with NCI-H226 lung, 47.9 µM; in the test with HCT-116 colon, 40.5 µM; in the test with SK-OV-3 ovarian, 31.1 µM; in the test with HOP-62 NSCLC, 46.7 µM. Moreover, the TGI stood at 30.1 µM in the test with UO-31 renal; 51.6 µM with OVCAR-8 ovarian; 33.6 µM with A549 NSCLC; 29.1 µM in the test on EKVX NSCLC; 58.1 µM with CCRF-CEM leukemia; 44.2 µM with UACC-257 melanoma. The TGI with SK-MEL-5 melanoma turned out to be 27 µM; with SNB-19 CNS, 37 µM; with BT-549 breast it was 50.6 µM; in the test on TK-10 renal it was 63.7 µM; with HT29 colon, 31.4 µM.
